Experimental findings from US20260337153A1, “IONIZABLE AMINE LIPIDS” (Intellia Therapeutics, Inc., priority 2023, published 2026) are described below.

Several values for one entry are separate records, joined by “and”; a condition that tells them apart may be missing. Equal values may be shown once.

One data set can be described thus: LNP encapsulation efficiency of RNA (Ribogreen fluorescence assay). In kind it is physicochemical. Particulars: LNP with 50% ionizable lipid, 38% cholesterol, 9% DSPC, 3% C13 Ether (LNP #1, Compound 53: 3% PEG2K-DMG instead); sgRNA:mRNA 1:2. How it is done: LNP compositions are analyzed for average particle size, polydispersity index (pdi), total RNA content, encapsulation efficiency of RNA, and zeta potential. LNP compositions may be further characterized by lipid analysis, AF4-MALS, NTA, and/or cryo-EM.
Encapsulation efficiency is calculated as (Total RNA−Free RNA)/Total RNA. A fluorescence-based assay (Ribogreen®, ThermoFisher Scientific) is used to determine total RNA concentration and free RNA. LNP samples are diluted appropriately with 1×TE buffer containing 0.2% Triton-X 100 to determine total RNA or 1×TE buffer to determine free RNA. Standard curves are prepared by utilizing the starting RNA solution used to make the compositions and diluted in 1×TE buffer+/−0.2% Triton-X 100. Diluted RiboGreen® dye (according to the manufacturer's instructions) is then added to each of the standards and samples and allowed to incubate for approximately 10 minutes at room temperature, in the absence of light. A SpectraMax M5 Microplate Reader (Molecular Devices) is used to read the samples with excitation, auto cutoff and emission wavelengths set to 488 nm, 515 nm, and 525 nm respectively. Total RNA and free RNA are determined from the appropriate standard curves. Alternatively, the total RNA concentration can be determined by a reverse-phase ion-pairing (RP-IP) HPLC method. Triton X-100 is used to disrupt the LNPs, releasing the RNA. The RNA is then separated from the lipid components chromatographically by RP-IP HPLC and quantified against a standard curve using UV absorbance at 260 nm.
In vivo editing efficiency for materials delivered with formulations including various amine lipid (or ionizable lipid) compounds in Experiments 1 through 14 as described in Tables 3 and 4 was assessed. Editing was measured using G000534 (SEQ ID NO: 5) which targets the rat TTR gene. Lipids described above were assessed for efficacy through in vivo editing experiments. LNPs were formulated at a 1:2 w/w ratio of sgRNA (SEQ ID NO: 5) and Cas9 mRNA (SEQ ID NO: 3). In Experiments 1 through 13, lipid components of the LNP are formulated in a molar ratio of 50% ionizable lipid, 38% cholesterol, 9% DSPC, and 3% PEG2K-DMG. In Experiment 14, lipid components of the LNP are formulated in a molar ratio of 50% ionizable lipid, 38% cholesterol, 9% DSPC, and 3% C13 Ether. The final LNPs used in different in vivo editing experiments were characterized to determine the encapsulation efficiency (% E), polydispersity index (PDI), and average particle size (Z-avg and number mean) according to the analytical methods provided above. The pKa values of each of the following ionizable lipids were also measured to be in the range of about 5.8 to about 7.6.
In vivo editing efficiency for materials delivered with formulations including various combinations of amine lipid (or ionizable lipid) and PEG lipid compounds was assessed as described in Tables 5 and 6. Editing was measured using G000534 (SEQ ID NO: 5) which targets the rat TTR gene. Lipids described above were assessed for efficacy through in vivo editing experiments. LNPs were formulated at a 1:2 w/w ratio of sgRNA (SEQ ID NO: 5) and Cas9 mRNA (SEQ ID NO:3). Lipid components of the LNP are formulated in a molar ratio of 50% ionizable lipid, 38% cholesterol, 9% DSPC, and 3% of various PEG lipids (e.g., PEG2K-DMG, C13 Ether, C14 Ether). The final LNPs used in different in vivo editing experiments were characterized to determine the encapsulation efficiency (% E), polydispersity index (PDI), and average particle size (Z-avg and number mean) according to the analytical methods provided above. The pKa values of each of the following ionizable lipids were also measured to be in the range of about 5.8 to about 7.6.
In vivo editing efficiency for materials delivered with formulations including various amine lipid (or ionizable lipid) compounds as described in Tables 7 and 8 was assessed. […]
With `CCCCCCCCC(CCCCCCCC)OC(=O)CCCC(=O)OCC(COC(=O)CCCC(=O)OC(CCCCCCCC)CCCCCCCC)COC(=O)OCCCN1CCCC1` [Compound 33, di(heptadecan-9-yl) O,O′-(2-((((3-(pyrrolidin-1-yl)propoxy)carbonyl)oxy)methyl)propane-1,3-diyl) diglutarate], the “% E (encapsulation efficiency)” value was 99%.

Still in this data set, the particulars now being: Table 3, Experiment 14; LNP with 3% C13 Ether; sgRNA:mRNA 1:2.
As to `CCCCCCCCC(CCCCCCCC)OC(=O)CCCC(=O)OCC(COC(=O)CCCC(=O)OC(CCCCCCCC)CCCCCCCC)COC(=O)CCCN(C)C` [Compound 34, O,O′-(2-(((4-(dimethylamino)butanoyl)oxy)methyl)propane-1,3-diyl) di(heptadecan-9-yl) diglutarate], the “% E (encapsulation efficiency)” value was found to be 98%. `CCCCCCCCC(CCCCCCCC)OC(=O)CCCC(=O)OCC(COC(=O)CCCC(=O)OC(CCCCCCCC)CCCCCCCC)OC(=O)NCCN(CC)CC` [Compound 35, O,O′-(2-(((2-(diethylamino)ethyl)carbamoyl)oxy)propane-1,3-diyl) di(heptadecan-9-yl) diglutarate]: the “% E (encapsulation efficiency)” value was found to be 99%. On to `CCCCCCCCC(CCCCCCCC)C(=O)OCC(COC(=O)NCCN(CC)CC)COC(=O)C(CCCCCCCC)CCCCCCCC` [Compound 40, 2-((((2-(diethylamino)ethyl)carbamoyl)oxy)methyl)propane-1,3-diyl bis(2-octyldecanoate)], for which the “% E (encapsulation efficiency)” value is 92%.

The data set is the same for the next values; noted with them: Table 3, Experiments 1-13; LNP 50% ionizable lipid, 38% cholesterol, 9% DSPC, 3% PEG2K-DMG; sgRNA:mRNA 1:2.
As to `CCCCC/C=C\C/C=C\CCCCCCCC(=O)OCC(CCCCC(=O)OC(CCCCCCCC)CCCCCCCC)COC(=O)OCCCN(CC)CC` (stereo not drawn) [Compound 15, 2-((((3-(diethylamino)propoxy)carbonyl)oxy)methyl)-7-(heptadecan-9-yloxy)-7-oxoheptyl (9Z,12Z)-octadeca-9,12-dienoate], the “% E (encapsulation efficiency)” value is listed as 98%. As for `CCCCC/C=C\C/C=C\CCCCCCCC(=O)OCC(CCCCCCC(=O)OC(CCCCCCCC)CCCCCCCC)COC(=O)OCCCN(CC)CC` (stereo not drawn) [Compound 16, 2-((((3-(diethylamino)propoxy)carbonyl)oxy)methyl)-9-(heptadecan-9-yloxy)-9-oxononyl (9Z,12Z)-octadeca-9,12-dienoate], the “% E (encapsulation efficiency)” value came out at 99%. On the same count and under the same terms, next, `CCCCC/C=C\C/C=C\CCCCCCCC(=O)OCC(CCCCC(=O)OC(CCCCCC)CCCCCC)COC(=O)OCCCN(CC)CC` (stereo not drawn) [Compound 17, 2-((((3-(diethylamino)propoxy)carbonyl)oxy)methyl)-7-oxo-7-(tridecan-7-yloxy)heptyl (9Z,12Z)-octadeca-9,12-dienoate]: 99%; `CCCCC/C=C\C/C=C\CCCCCCCC(=O)OCC(CCCCCCC(=O)OC(CCCCCC)CCCCCC)COC(=O)OCCCN(CC)CC` (stereo not drawn) [Compound 18, 2-((((3-(diethylamino)propoxy)carbonyl)oxy)methyl)-9-oxo-9-(tridecan-7-yloxy)nonyl (9Z,12Z)-octadeca-9,12-dienoate]: 99%. As to `CCCCC/C=C\C/C=C\CCCCCCCC(=O)OCC(CCCCCCCCC(=O)OC(CCCCCC)CCCCCC)COC(=O)OCCCN(CC)CC` (stereo not drawn) [Compound 19, 2-((((3-(diethylamino)propoxy)carbonyl)oxy)methyl)-11-oxo-11-(tridecan-7-yloxy)undecyl (9Z,12Z)-octadeca-9,12-dienoate], the “% E (encapsulation efficiency)” value came to 99%. Take `CCCCC/C=C\C/C=C\CCCCCCCC(=O)OCC(CCCCCCC(=O)OC(CCCC)CCCC)COC(=O)OCCCN(CC)CC` (stereo not drawn) [Compound 20, 2-((((3-(diethylamino)propoxy)carbonyl)oxy)methyl)-9-(nonan-5-yloxy)-9-oxononyl (9Z,12Z)-octadeca-9,12-dienoate]: the “% E (encapsulation efficiency)” value came out at 98%. With `CCCCCCCCOC(CCC(=O)OCC(COC(=O)CCC(OCCCCCCCC)OCCCCCCCC)COC(=O)NCCN(CC)CC)OCCCCCCCC` [Compound 22, 2-((((2-(diethylamino)ethyl)carbamoyl)oxy)methyl)propane-1,3-diyl bis(4,4-bis(octyloxy)butanoate)], the “% E (encapsulation efficiency)” value is 99%.

Take `CCCCC/C=C\C/C=C\CCCCCCCCC(COC(=O)CCCCCC(=O)OC(CCCCCCCC)CCCCCCCC)COC(=O)NCCN(CC)CC` (stereo not drawn) [Compound 23, 1-((11Z,14Z)-2-((((2-(diethylamino)ethyl)carbamoyl)oxy)methyl)icosa-11,14-dien-1-yl) 7-(heptadecan-9-yl) heptanedioate]: the “% E (encapsulation efficiency)” value was 92% and 95%. For the compound `CCCCCCCCC(CCCCCCCC)OC(=O)CCCC(=O)OCC(COC(=O)CCCC(=O)OC(CCCCCCCC)CCCCCCCC)COC(=O)NCCN1CCCCC1` [Compound 28, di(heptadecan-9-yl) O,O′-(2-((((2-(piperidin-1-yl)ethyl)carbamoyl)oxy)methyl)propane-1,3-diyl) diglutarate], the “% E (encapsulation efficiency)” value was found to be 99%.

Take `CCCCCCCCC(CCCCCCCC)OC(=O)CCCC(=O)OCC(COC(=O)CCCC(=O)OC(CCCCCCCC)CCCCCCCC)COC(=O)NCCN1CCCC1` [Compound 29, di(heptadecan-9-yl) O,O′-(2-((((2-(pyrrolidin-1-yl)ethyl)carbamoyl)oxy)methyl)propane-1,3-diyl) diglutarate]: the “% E (encapsulation efficiency)” value is 100%.

Turning to `CCCCCCCCC(CCCCCCCC)OC(=O)CCCC(=O)OCC(COC(=O)CCCC(=O)OC(CCCCCCCC)CCCCCCCC)COC(=O)OCCCN(C)CC` [Compound 30, O,O′-(2-((((3-(ethyl(methyl)amino)propoxy)carbonyl)oxy)methyl)propane-1,3-diyl) di(heptadecan-9-yl) diglutarate], the “% E (encapsulation efficiency)” value came to 99%. For `CCCCCCCCC(CCCCCCCC)OC(=O)CCCC(=O)OCC(COC(=O)CCCC(=O)OC(CCCCCCCC)CCCCCCCC)COC(=O)OCCCN(C)C` [Compound 31, O,O′-(2-((((3-(dimethylamino)propoxy)carbonyl)oxy)methyl)propane-1,3-diyl) di(heptadecan-9-yl) diglutarate], the “% E (encapsulation efficiency)” value came out at 100%. Consider `CCCCCCCCC(CCCCCCCC)OC(=O)CCCC(=O)OCC(COC(=O)CCCC(=O)OC(CCCCCCCC)CCCCCCCC)COC(=O)OCCCN1CCCCC1` [Compound 32, di(heptadecan-9-yl) O,O′-(2-((((3-(piperidin-1-yl)propoxy)carbonyl)oxy)methyl)propane-1,3-diyl) diglutarate], for which the “% E (encapsulation efficiency)” value is reported as 99%. In the case of `CCCCCCCCC(CCCCCCCC)OC(=O)CCCC(=O)OCC(COC(=O)CCCC(=O)OC(CCCCCCCC)CCCCCCCC)COC(=O)OCCCN1CCCC1` [Compound 33, di(heptadecan-9-yl) O,O′-(2-((((3-(pyrrolidin-1-yl)propoxy)carbonyl)oxy)methyl)propane-1,3-diyl) diglutarate], the “% E (encapsulation efficiency)” value was found to be 100%.

As to `CCCCCCCCC(CCCCCCCC)OC(=O)CCCC(=O)OCC(C)(COC(=O)CCCC(=O)OC(CCCCCCCC)CCCCCCCC)COC(=O)NCCN(CC)CC` [Compound 36, O,O′-(2-((((2-(diethylamino)ethyl)carbamoyl)oxy)methyl)-2-methylpropane-1,3-diyl) di(heptadecan-9-yl) diglutarate], the “% E (encapsulation efficiency)” value was determined as 98%. Take `CCCCCCC(CCCCCC)OC(=O)CCCC(=O)OCC(COC(=O)CCCC(=O)OC(CCCCCC)CCCCCC)COC(=O)NCCN(CC)CC` [Compound 37, O,O′-(2-((((2-(diethylamino)ethyl)carbamoyl)oxy)methyl)propane-1,3-diyl) di(tridecan-7-yl) diglutarate]: the “% E (encapsulation efficiency)” value was found to be 99%.

With `CCCCCCCCCCCC(=O)OCC(COC(=O)CCC(OCCCCCCCC)OCCCCCCCC)COC(=O)OCCCN(CC)CC` (stereo not drawn) [Compound 41, 3-((4,4-bis(octyloxy)butanoyl)oxy)-2-((((3-(diethylamino)propoxy)carbonyl)oxy)methyl)propyl Dodecanoate], the “% E (encapsulation efficiency)” value was 98%.
